# What was measured:
# [1] = tested on: lexA; assay: Pouch panel (+dsDNAse +RT) relative expression level of lexA after ciprofloxacin exposure; assay type: cell-based, Pseudomonas aeruginosa; settings: 7.5 or 15 μg/mL ciprofloxacin, 10, 30 and 60 minutes, versus zero ciprofloxacin
# From the text: In this illustrative example, a pouch similar to pouch 510 was developed to include a DNase treatment step by including DNAse, illustratively a dsDNAse from Pandalus borealis, freeze dried into the fitment, as well as a slight modification in the elution buffer that is freeze dried into injection channel 515e, although it is understood that this dsDNAse is illustrative only and that other DNAses can be used, as well as other DNA removal methods. For the DNAse step, subsequent to elution, the temperature is raised to a temperature suitable for the DNAse enzyme, illustratively 42° C., followed by reverse-transcription and first-stage multiplex PCR. In this example, the pouch contained 45 different assays of interest (including control genes such as rpoD), targets where mRNA is present in concentrations greater than genomic (“high copy targets”) such as PA14_RS28865, as well as a number of antibiotic resistance gene targets including recA (specific) and lasI (generic) that are present in concentrations lower than genomic. However, it is understood that this panel of assays is illustrative only, and any combination of assays may be used. In one illustrative embodiment, all assays are for RNA targets, illustratively mRNA targets, although other RNA targets may be suitable for detection and/or quantification using the methods provided herein. […]
# [2] = tested on: lasI; assay: Benchtop RT-PCR Cp of lasI transcript, strains S1/R1 with ciprofloxacin; assay type: cell-based, P. aeruginosa; settings: 15 μg/mL Ciprofloxacin for 10 minutes, cDNA 1:100 dilution
# Protocol: (§1) P. aeruginosa, two strains: one that is resistant and the other susceptible. • S1=susceptible to Ciprofloxacin • R1=resistant to Ciprofloxacin
# (§2) In this example, each strain (S1 and R1) was grown to 0.5 OD600 (-1×10^8 CFU/mL) and each was treated with or without 15 μg/mL of Ciprofloxacin for 10 minutes (two strains, each +/− antibiotic, provides four test conditions). It is understood that the OD and antibiotic incubation time are illustrative only and that other concentrations and times may be used. cDNA was generated by extracting on Magnapure using TNA kit, following bacterial lysis protocol, quantifying using Qubit RNA HS Assay Kit (Q32852), genomic DNA removed and cDNA generated using Maxima H Minus cDNA Kit with dsDNAse (M1682).
# For some of these genes, a similar ΔCp between susceptible and resistant strains was found both with and without the presence of antibiotics. Such genes are referred to as “generic antibiotic resistance genes” as they distinguish between susceptible and resistant strains even in the absence of antibiotics. Several of these generic antibiotic resistance genes are in the quorum sensing pathway or the iron uptake pathway, while the pathway for several others are unknown. These genes included LasI, RhlI, pqsH, pvdE, PepSY, speD, PA14_RS20905, and coA. […]
# [3] = tested on: lexA; assay: Benchtop RT-PCR Cp of lexA transcript, strains S1/R1 with ciprofloxacin; assay type: cell-based, P. aeruginosa; settings: 15 μg/mL Ciprofloxacin for 10 minutes, cDNA 1:100 dilution
# Protocol: as §1, §2
# For other genes, significant ΔCp was found only in the presence of antibiotics. These “specific antibiotic resistance genes” include lexA, sulA, ptrB, and, PA14_RS07985, with ptrB showing up-regulation in the resistant strain. The amplification curves for lexA are shown in FIG. 5B, where the susceptible strain with antibiotic has a Cp about 2 cycles earlier than the other three conditions. For the other three conditions, the resistant strain with and without antibiotics had essentially the same Cp as the susceptible strain without antibiotics.
smiles,measurement,setting,value
O=C(O)c1cn(C2CC2)c2cc(N3CCNCC3)c(F)cc2c1=O [Ciprofloxacin],relative expression of lexA (geometric mean normalized Cp),[1]; resistant strain,did not change
same,relative expression of lexA (geometric mean normalized Cp),[1]; susceptible strain,clear time dependent induction
same,Cp of lasI amplification curve,[2]; Resistant strain +ABX,15.15
same,Cp of lasI amplification curve,[2]; Susceptible strain +ABX,10.55
same,Cp of lexA amplification curve,[3]; Resistant strain +ABX,18.55
same,Cp of lexA amplification curve,[3]; Susceptible strain +ABX,16.36

# From patent publication US20210371895A1, “BACTERIAL RESPONSE” (BioFire Diagnostics, LLC, priority 2018, published 2021)
